In patent publication US4176126A, “Novel corticoids” (Schering Aktiengesellschaft, priority 1976, dated 1979):
Where two headings read alike, the source gives them in different places.

Experiments:
[1] = tested on: skin (stratum corneum stripped, hyperemia); experiment: vasoconstriction test (topical ointment on stripped skin, skin color value); type: in vivo, human volunteers; details: concentration 0.00001%, untreated skin = 100, stripped skin = 0
Experimental: The local anti-inflammatory activity of the corticoids can be determined by means of the conventional vasoconstriction test.
On the backs of persons volunteering for the experiment, the stratum corneum was split up by the application and removal of an adhesive strip having a width of 2 cm. applied twenty times at the same spot, thus producing a pronounced hyperemia. Within the stripped area, 50 mg of an ointment preparation were applied to each one of a number of marked zones of a size of 4 cm^2. The ointment base without active ingredient served as the blank value. The color value of the untreated skin was set at 100 while that of the stripped skin was set at 0. The skin color value under vasoconstriction was correspondingly evaluated between 0 and 100.

paw edema = experiment: adjuvant-edema test (oral, Mycobacterium butyricum paw edema); type: in vivo, SPF rats; details: Rattus norvegicus, read-out: Adjuvant Edema Test ED50
Experimental: Furthermore, the systemic activity was determined with the aid of the adjuvant-edema test as follows:
SPF rats weighing 130-150 g were injected in the right hind paw with 0.1 ml of a 0.5% Mycobacterium butyricum suspension (obtainable from the U.S. company, Difco), in order to induce a center of inflammation. Prior to injection, the paw volume of the rats was measured. Twenty four hours after injection, the paw volume was measured once again to determine the extent of the edema. Thereafter, varying amounts of the test compound, was administered orally to the rats. After another 24 hours, the paw volume was again determined.
The control animals were treated in the same way but without any test compound.
From the thus-obtained paw volumes, the amount of test compound which was required to achieve a 50% reduction the paw edema was conventionally determined. Difluocotolone 21-valerate was also utilized in these tests as the comparison compound.

thymus = experiment: thymolysis test (oral, adrenalectomized rats, thymus weight); type: in vivo, SPF rats; details: Rattus norvegicus, 72 h, read-out: Thymolysis ED50
Experimental: The systemic activity of the compounds of this invention was determined as follows with the aid of the well-known thymolysis test:
SPF [specific-pathogen free] rats weighing 70- 110 g were adrenalectomized under ether narcosis. Six animals, respectively, formed each test group and received orally over a period of three days a defined amount of the test compound. On the fourth day, the animals were sacrificed and the weight of their thymus determined. The control animals were treated in the same way, but received a benzyl benzoate-castor -castor oil mixture without the test compound. From the thus-measured thymus weights, the amount of test compound at which a 50% thymolysis was observed was conventionally determined.

[2] = oral, 50% reduction of paw edema, systemic activity
[3] = oral, three days, 50% thymolysis, adrenalectomized rats, systemic activity

**Q.** What does the source list for `CCCCC(=O)OCC(=O)[C@H]1[C@H](C)C[C@H]2[C@@H]3C[C@H](F)C4=CC(=O)C=C[C@]4(C)[C@@]3(F)[C@@H](O)C[C@@]21C` [I, 6α, 9α-difluoro-11β-hydroxy-16α-methyl-21-valeryloxy-1,4-pregnadiene-3,20-dione, reference compound]?
**A.** Vasoconstriction after 4 Hours [1]: 33%; Vasoconstriction after 8 Hours [1]: 36%; ED50 (paw edema; po): 0.3 mg/kg; ED50 (thymus; po): 0.03 mg/kg

**Q.** Which results are given for `CC(C)(C)C(=O)OCC(=O)[C@@]1(OC(=O)c2ccccc2)CC[C@H]2C3=C([C@@H](O)C[C@@]21C)[C@@]1(C)C=CC(=O)C=C1CC3` [II, 17α-Benzoyloxy-11β-hydroxy-21-trimethylacetoxy-1,4,8(9)-pregnatriene-3,20-dione]?
**A.** Vasoconstriction after 4 Hours [1]: 30%; Vasoconstriction after 8 Hours [1]: 33%; ED50 (paw edema; [2]): 10 mg/kg; ED50 (thymus; [3]): 5.5 mg/kg

**Q.** How did the “Vasoconstriction after 4 Hours” value [1] turn out when `CC(=O)O[C@]1(C(=O)CCl)CC[C@H]2C3=C([C@@H](O)C[C@@]21C)[C@@]1(C)C=CC(=O)C=C1CC3` [III, 17α-Acetoxy-21-chloro-11β-hydroxy-1,4,8(9)-pregnatriene-3,20-dione] was run?
**A.** 42%

**Q.** And the “Vasoconstriction after 8 Hours” value [1]?
**A.** 42%

**Q.** And the ED50 (paw edema; [2])?
**A.** 3.6 mg/kg

**Q.** What about the ED50 (thymus; [3]) of the same compound?
**A.** 3.6 mg/kg

**Q.** Which “Vasoconstriction after 4 Hours” value [1] does the source give for `CCC(=O)O[C@]1(C(=O)CCl)CC[C@H]2C3=C([C@@H](O)C[C@@]21C)[C@@]1(C)C=CC(=O)C=C1CC3` [IV, 21-Chloro-11β-hydroxy-17α-propionyloxy-1,4,8(9)-pregnatriene-3,20-dione] here?
**A.** 47%

**Q.** What about the “Vasoconstriction after 8 Hours” value [1] of the same compound?
**A.** 45%

**Q.** What about the ED50 (paw edema; [2]) of the same compound?
**A.** 2 mg/kg

**Q.** What about the ED50 (thymus; [3]) of the same compound?
**A.** 2 mg/kg

**Q.** With `C[C@]12C=CC(=O)C=C1CCC1=C2[C@@H](O)C[C@@]2(C)[C@H]1CC[C@]2(OC(=O)c1ccccc1)C(=O)CCl` [V, 17α-Benzoyloxy-21-chloro-11β-hydroxy-1,4,8(9)-pregnatriene-3,20-dione] as the compound, how does the “Vasoconstriction after 4 Hours” value [1] read?
**A.** 52%

**Q.** And the “Vasoconstriction after 8 Hours” value [1]?
**A.** 64%

**Q.** And the ED50 (paw edema; [2])?
**A.** 1 mg/kg

**Q.** What about the ED50 (thymus; [3]) of the same compound?
**A.** 1 mg/kg
